Usually solubility stands for the concentration that dissolves in the medium under given conditions. Low values mean little dissolved substance, high ones much dissolved substance.

Series [1] is described as follows: Crystallisation inhibition: XRPD of the precipitate from a supersaturated solution in FaSSIF + 1% PVPVA64. The format is physicochemical. To be noted: Compound A monohydrate in NMP (175 mg/mL) added to FaSSIF + 1% PVPVA64, 475.5 μg/mL (DS 16), 37° C., 2 hours, 300 rpm. Here is the method: (§1) A 1% solution of PVPVA64 in FaSSIF was prepared by weighing 2.5 g of PVPVA64 in a volumetric flask and dissolving it in 250 mL FaSSIF at 37° C. The complete volume of the volumetric flask was transferred to a suitable Duran bottle. Afterwards, a highly concentrated solution of Compound A monohydrate (obtained according to Example 1) in NMP was prepared (175 mg/mL). At time zero, 679 μL of the highly concentrated Compound A solution (175 mg/mL) was added to the Duran bottle containing 250 mL FaSSIF+1% PVPVA64 (w/v). The added volume Compound A solution was chosen to obtain a theoretical final concentration of 475.5 μg/mL. This concentration results in a suitable degree of supersaturation of Compound A.
A precipitate formed immediately after adding the highly concentrated solution. The mixture was equilibrated at 37° C. for 2 hours while stirring at 300 rpm. After 2 hours, the precipitate was separated from the liquid phase by vacuum filtration. The precipitate was then analyzed with Powder X-Ray Diffraction to check if the API present in the formed precipitate was present as an amorphous or a crystalline form.
X-ray powder diffraction (XRPD) analysis was carried out on a PANalytical (Philips) X'PertPRO MPD diffractometer. The instrument is equipped with a Cu LFF X-ray tube. The compound was spread on a zero-background sample holder

The nature of series [2]: Solubility of Compound A in FaSSIF. The format is physicochemical. Particulars: 37 °C. Here is the method: as §1

Molecules are shown by their SMILES. Converted amounts (≈) assume the structure as drawn.

Take `O=C(Nc1ccnc(C(F)(F)F)c1)c1cnn(-c2cccc3c(=O)[nH]ccc23)c1C(F)(F)F` [Compound A, 1-(1-oxo-1,2-dihydroisoquinolin-5-yl)-5-(trifluoromethyl)-N-(2-(trifluoromethyl)pyridin-4-yl)-1H-pyrazole-4-carboxamide]: in series [1], the “Form of the precipitate (amorphous or crystalline) by XRPD” value was “amorphous precipitate”. The amount in solution in series [2] (solubility) came to 29.7 µg/mL (≈ 63.6 µM).

The values are drawn from patent publication US20220175760A1, “PHARMACEUTICAL FORMULATIONS” (Janssen Pharmaceutica NV, priority 2019, published 2022).
